According to ChEMBL document CHEMBL3885881, “DrugMatrix”:

Species on record: Rattus norvegicus
Assay: DrugMatrix - Regimen: Daily Repeat
Type: toxicity, organism-based, Sprague-Dawley
Parameters: regimen Daily Repeat, gender Male, age 6-8 weeks
Details: in vivo, po, route oral GAVAGE, […]; for ABSOLUTE BASOPHIL / ABSOLUTE EOSINOPHIL / ABSOLUTE LYMPHOCYTE / ABSOLUTE MONOCYTE / ABSOLUTE SEGMENTED NEUTROPHIL / BASOPHIL / EOSINOPHIL / ERYTHROCYTE COUNT / HEMATOCRIT / HEMOGLOBIN / LEUKOCYTE COUNT / LYMPHOCYTE / MEAN CORPUSCULAR HEMOGLOBIN / MEAN CORPUSCULAR HEMOGLOBIN CONCENTRATION / MEAN CORPUSCULAR VOLUME / MONOCYTE / NEUTROPHIL / NUCLEATED RED BLOOD CELLS / PLATELET COUNT: tissue Blood; for ALANINE AMINOTRANSFERASE / ALBUMIN / ALKALINE PHOSPHATASE / ASPARTATE AMINOTRANSFERASE / BLOOD UREA NITROGEN / CARBON DIOXIDE / CHLORIDE / CHOLESTEROL / CREATININE / GLUCOSE / LACTATE DEHYDROGENASE / LIPASE / PHOSPHORUS / POTASSIUM / SODIUM / TOTAL BILIRUBIN / TOTAL PROTEIN / URIC ACID: tissue Plasma
[1] = 0 mg/kg, 72 h, dose level Control, time 3 day
[2] = 0 mg/kg, 120 h, dose level Control, time 5 day
[3] = 250 mg/kg, 72 h, dose level Low, time 3 day

Structure (SMILES): CC(C)Cc1ccc(CC(=O)O)cc1 [IBUFENAC]
- ABSOLUTE BASOPHIL [1]: 0 CELLS/uL
- ABSOLUTE EOSINOPHIL [1]: 255.83 CELLS/uL
- ABSOLUTE LYMPHOCYTE [1]: 11617.83 CELLS/uL
- ABSOLUTE MONOCYTE [1]: 307.5 CELLS/uL
- ABSOLUTE SEGMENTED NEUTROPHIL [1]: 1902.17 CELLS/uL
- BASOPHIL [1]: 0%
- EOSINOPHIL [1]: 1.83%
- ERYTHROCYTE COUNT [1]: 5.58 x10E6/uL
- HEMATOCRIT [1]: 33.62%
- HEMOGLOBIN [1]: 12.42 G/DL
- LEUKOCYTE COUNT [1]: 14.08 x10E3/uL
- LYMPHOCYTE [1]: 82.67%
- MEAN CORPUSCULAR HEMOGLOBIN [1]: 22.32 pg
- MEAN CORPUSCULAR HEMOGLOBIN CONCENTRATION [1]: 36.98 G/DL
- MEAN CORPUSCULAR VOLUME [1]: 60.4 fL
- MONOCYTE [1]: 2.17%
- NEUTROPHIL [1]: 13.33%
- NUCLEATED RED BLOOD CELLS [1]: 0 /100WBC
- PLATELET COUNT [1]: 1154.67 x10E3/uL
- ALANINE AMINOTRANSFERASE [1]: 64.67 u/L
- ALBUMIN [1]: 4.18 G/DL
- ALKALINE PHOSPHATASE [1]: 382.67 u/L
- ASPARTATE AMINOTRANSFERASE [1]: 123.17 u/L
- BLOOD UREA NITROGEN [1]: 17.67 mg/dL
- CARBON DIOXIDE [1]: 24.33 mmol/L
- CHLORIDE [1]: 101.67 MEQ/L
- CHOLESTEROL [1]: 76.5 mg/dL
- CREATININE [1]: 0.2 mg/dL
- GLUCOSE [1]: 175.33 mg/dL
- LACTATE DEHYDROGENASE [1]: 331 u/L
- LIPASE [1]: 10.17 u/L
- PHOSPHORUS [1]: 12.77 mg/dL
- POTASSIUM [1]: 6.65 MEQ/L
- SODIUM [1]: 145.8 MEQ/L
- TOTAL BILIRUBIN [1]: 0.2 mg/dL
- TOTAL PROTEIN [1]: 6.07 G/DL
- URIC ACID [1]: 1.78 mg/dL
- ABSOLUTE BASOPHIL [2]: 0 CELLS/uL
- ABSOLUTE EOSINOPHIL [2]: 155.33 CELLS/uL
- ABSOLUTE LYMPHOCYTE [2]: 12695.83 CELLS/uL
- ABSOLUTE MONOCYTE [2]: 475.67 CELLS/uL
- ABSOLUTE SEGMENTED NEUTROPHIL [2]: 1989.83 CELLS/uL
- BASOPHIL [2]: 0%
- EOSINOPHIL [2]: 1%
- ERYTHROCYTE COUNT [2]: 5.75 x10E6/uL
- HEMATOCRIT [2]: 34.98%
- HEMOGLOBIN [2]: 12.73 G/DL
- LEUKOCYTE COUNT [2]: 15.32 x10E3/uL
- LYMPHOCYTE [2]: 83%
- MEAN CORPUSCULAR HEMOGLOBIN [2]: 22.17 pg
- MEAN CORPUSCULAR HEMOGLOBIN CONCENTRATION [2]: 36.4 G/DL
- MEAN CORPUSCULAR VOLUME [2]: 60.92 fL
- MONOCYTE [2]: 3%
- NEUTROPHIL [2]: 13%
- NUCLEATED RED BLOOD CELLS [2]: 0 /100WBC
- PLATELET COUNT [2]: 1081.33 x10E3/uL
- ALANINE AMINOTRANSFERASE [2]: 55 u/L
- ALBUMIN [2]: 4.12 G/DL
- ALKALINE PHOSPHATASE [2]: 354.67 u/L
- ASPARTATE AMINOTRANSFERASE [2]: 91 u/L
- BLOOD UREA NITROGEN [2]: 15 mg/dL
- CARBON DIOXIDE [2]: 27.17 mmol/L
- CHLORIDE [2]: 100.5 MEQ/L
- CHOLESTEROL [2]: 71.5 mg/dL
- CREATININE [2]: 0.18 mg/dL
- GLUCOSE [2]: 169.17 mg/dL
- LACTATE DEHYDROGENASE [2]: 324 u/L
- LIPASE [2]: 10.5 u/L
- PHOSPHORUS [2]: 12.07 mg/dL
- POTASSIUM [2]: 6.58 MEQ/L
- SODIUM [2]: 141.92 MEQ/L
- TOTAL BILIRUBIN [2]: 0.12 mg/dL
- TOTAL PROTEIN [2]: 5.88 G/DL
- URIC ACID [2]: 1.6 mg/dL
- ABSOLUTE BASOPHIL [3]: 0 CELLS/uL
- ABSOLUTE EOSINOPHIL [3]: 268.67 CELLS/uL
- ABSOLUTE LYMPHOCYTE [3]: 13501.33 CELLS/uL
- ABSOLUTE MONOCYTE [3]: 489 CELLS/uL
- ABSOLUTE SEGMENTED NEUTROPHIL [3]: 2041 CELLS/uL
- BASOPHIL [3]: 0%
- EOSINOPHIL [3]: 1.67%
- ERYTHROCYTE COUNT [3]: 5.57 x10E6/uL
- HEMATOCRIT [3]: 33.83%
- HEMOGLOBIN [3]: 12.4 G/DL
- LEUKOCYTE COUNT [3]: 16.3 x10E3/uL
- LYMPHOCYTE [3]: 83%
- MEAN CORPUSCULAR HEMOGLOBIN [3]: 22.23 pg
- MEAN CORPUSCULAR HEMOGLOBIN CONCENTRATION [3]: 36.67 G/DL
- MEAN CORPUSCULAR VOLUME [3]: 60.7 fL
- MONOCYTE [3]: 3%
- NEUTROPHIL [3]: 12.33%
- NUCLEATED RED BLOOD CELLS [3]: 0 /100WBC
- PLATELET COUNT [3]: 1296 x10E3/uL
- ALANINE AMINOTRANSFERASE [3]: 64.67 u/L
- ALBUMIN [3]: 4.3 G/DL
- ALKALINE PHOSPHATASE [3]: 362.33 u/L
- ASPARTATE AMINOTRANSFERASE [3]: 94.67 u/L
- BLOOD UREA NITROGEN [3]: 15.67 mg/dL
- CARBON DIOXIDE [3]: 26.67 mmol/L
- CHLORIDE [3]: 103 MEQ/L
- CHOLESTEROL [3]: 79.33 mg/dL
- CREATININE [3]: 0.15 mg/dL
- GLUCOSE [3]: 164.67 mg/dL
- LACTATE DEHYDROGENASE [3]: 128.67 u/L
- LIPASE [3]: 9.67 u/L
- PHOSPHORUS [3]: 11.4 mg/dL
- POTASSIUM [3]: 6.53 MEQ/L
- SODIUM [3]: 146.97 MEQ/L
- TOTAL BILIRUBIN [3]: 0.17 mg/dL
- TOTAL PROTEIN [3]: 6.03 G/DL
- URIC ACID [3]: 1.43 mg/dL
